Here are results for five compounds from patent US8110399B2, “Stem cells of the islets of langerhans and their use in treating diabetes mellitus” (The General Hospital Corporation, priority 1999, dated 2012).

One experiment deals with nestin-positive NIPs. Nature of the experiment: Intracellular Ca2+ concentration in single isolated NIPs. It counts as cell-based, human. Here is the method:
The application of GLP-1 amide to single, isolated […] elevates levels of intracellular Ca^2+ concentration ([Ca^2+]i). Cells were plated onto gridded coverslips to permit subsequent immunohistochemical staining of the same cells to test for nestin expression.

Another experiment concerns NIP cultures. Nature of the experiment: Immunocytochemical detection of differentiation of NIPs. To be noted: for Idx-1 immunostaining / insulin immunostaining: NIP cultures expanded 7-10 days, then treated. It counts as cell-based, human. The method, then: Nestin-positive pancreatic islet stem cells were analyzed for GLP-1R expression. Human islet tissue was obtained from the Juvenile Diabetes Research Center for Islet Transplantation, Harvard Medical School. NIPs were isolated as described previously (Zulewski, et al., 2001, Diabetes 50: 521). Briefly, islets were washed and cultured in RPMI 1640 medium containing serum, 11.1 mM glucose, antibiotics, sodium pyruvate, β-mercaptoethanol, and growth factors. Within several days, nestin-positive cells (identified immunocytochemically as described above) grew out from the islets. Later, these cells were cloned and expanded in medium containing 20 ng/ml of basic fibroblast growth factor and epidermal growth factor or 1000 units of recombinant human leukemia inhibitory factor. Incubation with GLP-1 was administered in the absence of serum and fresh peptide was added every 48 h without changing the medium.
Immunocytochemical detection of GLP-1R was performed using rabbit polyclonal antisera (Heller et al., supra) as follows. Cells cultured on Lab-Tek chamber slides (Nunc, Naperville, Ill.) or gridded coverslips (Bellco Glass, NJ) were fixed with 4% paraformaldehyde in PBS for 10 minutes at room temperature. After several rinses in PBS, cells were blocked with normal donkey serum for 30 minutes and incubated with primary antisera or pre-immune sera at 4° C. The following day, cells were rinsed with PBS and incubated with secondary antisera (donkey anti-rabbit and donkey anti-guinea pig) labeled with Cy-3 or Cy-2 for 1 hour at room temperature. After several washes, coverslips containing cells were mounted onto slides in mounting medium containing DAPI (Vector Laboratories, Burlingame, Calif.) which stains nuclei. Fluorescence images were obtained using a Zeiss epifluorescence microscope equipped with an Optronics TEC-470 CCD camera (Optronics Engineering, Goleta, Calif.) interfaced with a Powermac 7100. IP lab Spectrum software (Signal Analytics, Vienna, Va.) was used to acquire and analyze images.
NIPs were picked from islet cultures and expanded in growth medium containing bFGF plus EGF (passage 01) for 3-10 days (Zulewski et al., 2001 Diabetes 50: 521). In certain instances NIPOs that were expanded for 3-5 days were fixed and subjected to immunocytochemical detection of Nestin (Cy-3) and Insulin (Cy-2) as shown in FIG. 24A. […] Accordingly, treatment with Extendin-4 induced a 2- to 3-fold increase in insulin secretion (FIG. 25). However, in some culture wells, confluence alone was sufficient to initiate small amounts of insulin secretion.

Experiment [1] deals with partial pancreatectomy rat model of type 2 diabetes. Particulars: daily administration for 10 days post pancreatectomy; cited from earlier work.
The test system of another experiment is islet mass. Nature of the experiment: Islet mass after injection of GLP-1 into mice. To be noted: in 48 hours. The class given is in vivo.
The test system of the next experiment is diabetic mice. To be noted: cited from earlier work.

Consider `[La+3]` [La^3+], for which the “[Ca2+]i increase mediated by GLP-1” value with nestin-positive NIPs (extracellular La3+ 5 μM) is listed as “inhibited”.

Regarding `CCCCNC(=O)NS(=O)(=O)c1ccc(C)cc1` [tolbutamide], in the experiment on nestin-positive NIPs (tolbutamide 100 μM), the “[Ca2+]i elevation” value was “stimulates [Ca^2+]i elevation”.

In the case of “Extendin (9-39): peptide, a specific antagonist of GLP-1 (GLP-1R antagonist)”, the “increase in [Ca2+]i mediated by GLP-1” value in the experiment with nestin-positive NIPs (pretreatment of single isolated NIPs with antagonist) is on record as “prevents the increase”.

For exendin-4 [Extendin-4], in the experiment on NIP cultures, the Idx-1 immunostaining result is listed as “Idx-1 positive” and the insulin immunostaining result was “a subset of cells became insulin positive”. Moreover, the development of diabetes result in experiment [1] is listed as “attenuated the development of diabetes”.

Regarding “glucagon-like peptide-1 (HDEFERHAEGTFTSDVSSYLEGQAAKEFIAWLVKGRG) [GLP-1, insulinotropic hormone glucagon-like peptide (GLP)-1 produced by the intestine]”, in the experiment with islet mass, the “increase of islet mass” value is on record as 2 fold. Also, in the experiment on diabetic mice, the blood sugar levels result was “effectively lowers their blood sugar levels” and the insulin secretion result is “stimulates insulin secretion”. Moreover, in the experiment with NIP cultures, the Idx-1 immunostaining result is “Idx-1 positive” and the insulin immunostaining result is reported as “a subset of cells became insulin positive”. Also, the “nestin expression of the cultures” value in the experiment on NIP cultures (cultures treated with GLP-1) is given as “overall decrease in nestin expression”. Besides, the “[Ca2+]i levels” value in the experiment on nestin-positive NIPs (basal (5.6 mM) glucose) is “stimulates [Ca^2+]i levels”. Moreover, the “[Ca2+]i levels” value in the experiment on nestin-positive NIPs (high (20 mM) glucose) is reported as “ineffective”.
